Laboratory results: BigSolDB 2.1

Nc1nc(N)nc(-c2ccncc2)n1
solubility (mole fraction)
Details | 288.15 K | 293.15 K | 298.15 K | 303.15 K | 308.15 K | 313.15 K | 318.15 K
in THF | 0.00308 | 0.00334 | 0.00362 | 0.0039 | 0.00407 | 0.00433 | 0.00455
in ethanol | 0.000734 | 0.000813 | 0.000925 | 0.0011 | 0.00122 | 0.00137 | 0.00159
in isopropanol | 0.000426 | 0.000506 | 0.000641 | 0.000787 | 0.000925 | 0.00116 | 0.00142
in methanol | 0.00138 | 0.00149 | 0.0017 | 0.00198 | 0.00214 | 0.00237 | 0.00269
in n-propanol | 0.000641 | 0.00072 | 0.00083 | 0.000942 | 0.00111 | 0.00128 | 0.00153
